In ChEMBL document CHEMBL1201862, “PubChem BioAssay data set” (2004):
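Growth conditions: 96-well plates. Treatment: test compound, 48 hours, 5 concentrations. Analysis: linear interpolation between bracketing concentrations; unreached endpoints set to highest concentration. GI50 is the concentration that inhibits growth by half.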 Calls of active or inactive are those of the source. Cut-off read from the data, not from the text of the source: active = GI50 up to about 1.1 µM and inactive = higher.

Columns and labels:
Assay in all cases: NCI-60 cell line screen, 48 h
[1] = test system: DU-145
[2] = test system: HCT-15
[3] = test system: K562
[4] = test system: M14
[5] = test system: MCF7
[6] = test system: MDA-MB-231
[7] = test system: MDA-MB-435
[8] = test system: Malme-3M
[9] = test system: NCI-H226
[10] = test system: NCI-H23
[11] = test system: NCI-H460
[12] = test system: RPMI-8226
[13] = test system: RXF 393
[14] = test system: SK-MEL-2
[15] = test system: SNB-19
[16] = test system: U-251
[17] = test system: IGROV-1
[18] = test system: UACC-62
[19] = test system: LOX IMVI
[20] = test system: A498

Compound | GI50 [1] | GI50 [2] [µM] | GI50 [3] | GI50 [4] | GI50 [5] | GI50 [6] | GI50 [7] | GI50 [8] | GI50 [9] | GI50 [10] | GI50 [11] | GI50 [12] | GI50 [13] | GI50 [14] | GI50 [15] | GI50 [16] | GI50 [17] | GI50 [18] | GI50 [19] | GI50 [20]
NC(=O)N/N=C1\CCCCc2ccccc21 | > 10 µM (inactive) | > 10 | > 10 µM (inactive) | > 10 µM (inactive) | > 10 µM (inactive) | > 10 µM (inactive) | > 10 µM (inactive) | > 10 µM (inactive) | > 10 µM (inactive) | > 10 µM (inactive) | > 10 µM (inactive) | > 10 µM (inactive) | > 10 µM (inactive) | > 10 µM (inactive) | > 10 µM (inactive) | > 10 µM (inactive) | – | – | – | –
O=CNNC(=O)Nc1cccc2ccccc12 | > 100 µM (inactive) | > 100 | > 100 µM (inactive) | > 100 µM (inactive) | > 100 µM (inactive) | > 100 µM (inactive) | > 100 µM (inactive) | > 100 µM (inactive) | 67.1 µM (inactive) | > 100 µM (inactive) | > 100 µM (inactive) | > 100 µM (inactive) | > 100 µM (inactive) | – | > 100 µM (inactive) | > 100 µM (inactive) | > 100 µM (inactive) | > 100 µM (inactive) | – | –
CCc1cc2c(oc3cc(C)ccc32)c(=O)n1C | > 10 µM (inactive) | > 10 | > 10 µM (inactive) | > 10 µM (inactive) | > 10 µM (inactive) | > 10 µM (inactive) | > 10 µM (inactive) | > 10 µM (inactive) | > 10 µM (inactive) | > 10 µM (inactive) | > 10 µM (inactive) | – | > 10 µM (inactive) | > 10 µM (inactive) | > 10 µM (inactive) | > 10 µM (inactive) | > 10 µM (inactive) | – | > 10 µM (inactive) | –
COc1nc(O)nc2c1C(c1ccc([N+](=O)[O-])cc1)c1c(OC)nc(O)nc1O2 | > 100 µM (inactive) | > 100 | – | > 100 µM (inactive) | – | > 100 µM (inactive) | > 100 µM (inactive) | – | > 100 µM (inactive) | > 100 µM (inactive) | > 100 µM (inactive) | > 100 µM (inactive) | > 100 µM (inactive) | > 100 µM (inactive) | > 100 µM (inactive) | > 100 µM (inactive) | > 100 µM (inactive) | > 100 µM (inactive) | – | > 100 µM (inactive)
COc1cc(OC)cc(Oc2nc3ccccc3nc2C(=O)O)c1 | > 100 µM (inactive) | > 100 | > 100 µM (inactive) | > 100 µM (inactive) | – | > 100 µM (inactive) | > 100 µM (inactive) | > 100 µM (inactive) | > 100 µM (inactive) | > 100 µM (inactive) | > 100 µM (inactive) | > 100 µM (inactive) | > 100 µM (inactive) | > 100 µM (inactive) | > 100 µM (inactive) | > 100 µM (inactive) | > 100 µM (inactive) | > 100 µM (inactive) | > 100 µM (inactive) | > 100 µM (inactive)
c1ccc(Cc2cccc3cc(-c4ccc(-c5ccccc5)cc4)[nH]c23)cc1 | 54.6 µM (inactive) | > 100 | – | 52.8 µM (inactive) | 97.1 µM (inactive) | 99.5 µM (inactive) | > 100 µM (inactive) | 1.76 µM (inactive) | > 100 µM (inactive) | > 100 µM (inactive) | > 100 µM (inactive) | 71.4 µM (inactive) | – | > 100 µM (inactive) | 93.3 µM (inactive) | 70.6 µM (inactive) | > 100 µM (inactive) | > 100 µM (inactive) | > 100 µM (inactive) | –
Cc1nc2c(=S)n(C)ncc2[nH]1 | – | > 100 | > 100 µM (inactive) | > 100 µM (inactive) | > 100 µM (inactive) | > 100 µM (inactive) | > 100 µM (inactive) | 0.0133 µM (active) | > 100 µM (inactive) | > 100 µM (inactive) | – | > 100 µM (inactive) | – | > 100 µM (inactive) | – | > 100 µM (inactive) | > 100 µM (inactive) | > 100 µM (inactive) | > 100 µM (inactive) | > 100 µM (inactive)
